Measurements reported in patent publication US8193179B2, “3-amino-6-(1-amino-ethyl)-tetrahydropyran derivatives” (Actelion Pharmaceuticals, Ltd, priority 2007, dated 2012).
Converted amounts (≈) assume the structure as drawn. Read-outs that look alike come from different tables or passages of the source.

How the values were obtained:
Type in all cases: cell-based
S. aureus A798 = test: MIC by microdilution in cation-adjusted Mueller-Hinton Broth, S. aureus A798; conditions: strain A798, test medium pH 7.2-7.3; for MIC: Staphylococcus aureus
Description: (§1) These assays have been performed following the description given in “Methods for dilution Antimicrobial Susceptibility Tests for Bacteria that Grow Aerobically, 4th ed.; Approved standard: NCCLS Document M7-A4; National Committee for Clinical Laboratory Standards: Villanova, Pa., USA, 1997”. Minimal inhibitory concentrations (MICs; mg/l) were determined in cation-adjusted Mueller-Hinton Broth (BBL) by a microdilution method following NCCLS guidelines (National Committee for Clinical Laboratory Standards. Methods for Dilution Antimicrobial Susceptibility). The pH of the test medium was 7.2-7.3.

P. aeruginosa A1124 = test: MIC by microdilution in cation-adjusted Mueller-Hinton Broth, P. aeruginosa A1124; conditions: strain A1124, test medium pH 7.2-7.3; for MIC: Pseudomonas aeruginosa
Description: as §1

A. baumanii T6474 = test: MIC by microdilution in cation-adjusted Mueller-Hinton Broth, A. baumanii T6474; conditions: strain T6474, test medium pH 7.2-7.3; for MIC: Acinetobacter baumannii
Description: as §1

[1] = read-out: MIC P. aeruginosa A1124
[2] = read-out: MIC P. aeruginosa A1124 (further typical results, comparison with WO 2006/032466)

Row | SMILES | MIC (S. aureus A798) [µg/mL] | MIC (P. aeruginosa A1124; [1]) [µg/mL] | MIC (A. baumanii T6474) [µg/mL] | MIC (P. aeruginosa A1124; [2]) [µg/mL] | other results
1 | COc1ccc2nccc(C[C@H](N)[C@@H]3CC[C@@H](NCc4ccc(C)c(F)c4)CO3)c2n1 [Example 19] |  |  |  |  | MIC S. aureus A798 (S. aureus A798): ≦0.031 mg/l; MIC P. aeruginosa A1124 (P. aeruginosa A1124): 2 µg/mL (≈ 4.71 µM); MIC A. baumanii T6474 (A. baumanii T6474): 0.5 µg/mL (≈ 1.18 µM)
2 | NC(Cc1ccnc2ccc(F)cc12)[C@@H]1CC[C@@H](NC/C=C/c2cc(F)ccc2F)CO1 (mixture of isomers) [Example 3, {(3R,6S)-6-[(1RS)-1-amino-2-(6-fluoro-quinolin-4-yl)-ethyl]-tetrahydro-pyran-3-yl}-[(E)-3-(2,5-difluoro-phenyl)-allyl]-amine] | 0.25 | 0.5 | 0.5 |  | 
3 | COc1ccc2nccc(C[C@H](N)[C@@H]3CC[C@@H](NCc4ccc5c(n4)NC(=O)CS5)CO3)c2n1 [Example 8, 6-({(3R,6S)-6-[(1S)-1-amino-2-(6-methoxy-[1,5]naphthyridin-4-yl)-ethyl]-tetrahydro-pyran-3-ylamino}-methyl)-4H-pyrido[3,2-b][1,4]thiazin-3-one] |  |  |  | 2 (≈ 4.16 µM) | 
4 | COc1ccc2ncc(F)c(CC(N)[C@@H]3CC[C@@H](NCc4ccc5c(n4)NC(=O)CO5)CO3)c2n1 (mixture of isomers) [Example 15, 6-({(3R,6S)-6-[(1RS)-1-amino-2-(3-fluoro-6-methoxy-[1,5]naphthyridin-4-yl)-ethyl]tetrahydro-pyran-3-ylamino}-methyl)-4H-pyrido[3,2-b][1,4]oxazin-3-one] | ≤ 0.031 | 0.125 | ≤ 0.031 |  | 
5 | COc1ccc2nccc(CC(N)[C@@H]3CC[C@@H](NCc4ccc5c(n4)NC(=O)CS5)CO3)c2c1 (mixture of isomers) [Example 4, 6-({(3R,6S)-6-[(1RS)-1-amino-2-(6-methoxy-quinolin-4-yl)-ethyl]-tetrahydro-pyran-3-ylamino}-methyl)-4H-pyrido[3,2-b][1,4]thiazin-3-one] |  |  |  | 8 | 
